Source: patent US5707996A, “Pharmaceutical solution and methods for preparation thereof” (Macleod Pharmaceuticals, Inc., priority 1995, dated 1998)
Where two headings read alike, the source gives them in different places.

Experiments:
protozoal enzymes = details: versus host cells; cited from earlier work
[1] = cited from earlier work

| SMILES | selectivity for inhibiting folate synthesis in protozoal enzymes (protozoal enzymes) | solubility in 2-pyrrolidone (45° C.) | solubility in 2-pyrrolidone (room temperature) | solubility in NMP (NMP, room temperature) | solubility in water (in words) [1] | solubility in water ([1]; room temperature) | solubility in acidic or basic aqueous medium (acidic or basic aqueous medium, room temperature) |
| --- | --- | --- | --- | --- | --- | --- | --- |
| COc1cc(Cc2cnc(N)nc2N)cc(OC)c1OC [Trimethoprim, 5-[(3,4,5-trimethoxyphenyl)methyl]-2,4-pyrimidinediamine] | high selectivity | about 2.0 g/10 ml | about 0.4 g/10 ml | about 1.6 g/10 ml | not soluble in water | about 0.04 g/100 ml | – |
| Nc1ccc(S(=O)(=O)Nc2ncccn2)cc1 [sulfadiazine, 4-amino-N-2-pyrimidinylbenzenesulfonamide] | – | – | – | – | – | – | at least 2.3 g/10 ml |
| Nc1ccc(S(=O)(=O)Nc2ncccn2)cc1 [Sodium sulfadiazine] | – | – | – | – | soluble in water | – | – |
